Experimental data as given in ChEMBL document CHEMBL4619715 (Bioorg Med Chem Lett, 2020).

Assays:
[1] = Solubility of the compound at pH 7; assay type: physicochemical; details: buffer
[2] = Solubility of the compound at pH 2; assay type: physicochemical; details: buffer
[3] = Oral bioavailability in rat; assay type: ADME, organism-based; details: in vivo
[4] = Distribution coefficient, logD of compound; assay type: physicochemical; details: octanol/water
[5] = Oral bioavailability in rhesus monkey; assay type: ADME, organism-based, Macaca mulatta; details: in vivo

| solubility [1] | solubility [2] | bioavailability [3] | logD [4] | bioavailability [5] | Compound |
| --- | --- | --- | --- | --- | --- |
| < 0.8 µM | < 0.8 µM |  |  |  | CC[C@@](O)(c1cn(Cc2ccc3c(-c4ccc(F)cc4)cc(C(N)=O)nc3c2)nn1)C(F)(F)F |
|  |  | > 99% | 2.1 | > 99% | NC(=O)c1cc(-c2ccc(F)cc2)c2ccc(CN3C(=O)CCC3=O)cc2n1 |
